Patent US12544365B2, “Pharmaceutical combination of an EP4 antagonist and immune checkpoint inhibitors for the treatment of tumours” (ROTTAPHARM BIOTECH S.R.L., priority 2019, dated 2026)

What was measured:
[1] = PK experiments in rat; details: in vivo, po
[2] = tested on: RANK-L gene expression in MDA-MB-231 cells; experiment: RANK-L gene expression in MDA-MB-231 cells stimulated with PGE2, RT-PCR; type: cell-based, human; details: 10 μM compound + 10 μM PGE2, 24 hours
Method: The human mammary gland adenocarcinoma MDA-MB-231 cells were obtained from ATCC and grown according to the instructions provided.
Cells were treated with 10 μM PGE2+Compound 1 10 μM for 24 hours. Total RNA was purified using the ABI Prism 6100 Nucleic Acid PrepStation (Applied Biosystems, Foster City, CA, USA) and retrotranscribed using the High-Capacity cDNA Reverse Transcription Kit (Thermo Fisher Scientific). RT-PCR analysis was performed using the Applied Biosystems 7500 Fast Real-Time PCR System using specific TaqMan assays (Hs00243522_m1; Thermo Fisher Scientific) and, as an endogenous control, the 18S Pre-Developed TaqMan® Assay (Thermo Fisher Scientific). The data analysis, with normalisation on 18S amplified values, was done following Thermo Fisher Scientific specific instructions for gene expression relative quantification. All individual data are the result of at least three different analyses for each sample.
MDA-MB-231 cells treated with 10 μM PGE2+Compound 1 10 μM for 24 hours and the levels of RANKL gene expression were evaluated by quantitative RT-PCR.

[3] = Stability of Form A at different humidity values and temperatures; type: physicochemical
Text: The stability of the Form A (named also as Compound 1) of the sodium salt of R)-4-(1-(6-(4-(trifluoromethyl)benzyl)-6-azaspiro[2.5]octane-5-carboxamido)cyclopropyl)benzoic acid at different humidity values and temperatures was investigated.

[4] = tested on: Th-17 cells differentiation of human CD4+ naïve T cells; experiment: Ex vivo human Th-17 cells differentiation (flow cytometry); type: cell-based; details: 0.03 μM PGE2, 48 hours
Method: Peripheral blood mononuclear cells (PBMC) were isolated from healthy volunteers using density gradient centrifugation and CD4+naïve T cells were enriched from PBMCs using human naïve CD4+ T cell isolation kit (Miltenyi Biotech). Isolated CD4+ T cells were maintained in RPMI medium and differentiated toward Th-17 cells by stimulation with IL-12 and IL-2, both 5 ng/ml in combination with 1.5 ng/ml of antibodies anti CD3 and anti CD28 and 0.03 μM PGE2+Compound 1 at concentration of 0.01-0.03-0.1-0.3 μM for 48 hours.
At the end of incubation time cells were stained with fluorescence-conjugated antibodies specific for CD4, CCR6, CD45, CD25 and IL-17 (all from BD Bioscience). Finally, the number of Th-17 cells was determined by flow cytometry and the events were measured by Fluorescence Activated Cell Sorter (FACS; BD Bioscience) and analyzed with dedicated software.

[5] = molecular target: human recombinant EP4 receptor (Homo sapiens, UniProt P35408); experiment: [3H]-PGE2 specific binding on human recombinant EP4 receptor (HEK293 membranes)
Chain of human recombinant EP4 receptor (P35408 whole entry): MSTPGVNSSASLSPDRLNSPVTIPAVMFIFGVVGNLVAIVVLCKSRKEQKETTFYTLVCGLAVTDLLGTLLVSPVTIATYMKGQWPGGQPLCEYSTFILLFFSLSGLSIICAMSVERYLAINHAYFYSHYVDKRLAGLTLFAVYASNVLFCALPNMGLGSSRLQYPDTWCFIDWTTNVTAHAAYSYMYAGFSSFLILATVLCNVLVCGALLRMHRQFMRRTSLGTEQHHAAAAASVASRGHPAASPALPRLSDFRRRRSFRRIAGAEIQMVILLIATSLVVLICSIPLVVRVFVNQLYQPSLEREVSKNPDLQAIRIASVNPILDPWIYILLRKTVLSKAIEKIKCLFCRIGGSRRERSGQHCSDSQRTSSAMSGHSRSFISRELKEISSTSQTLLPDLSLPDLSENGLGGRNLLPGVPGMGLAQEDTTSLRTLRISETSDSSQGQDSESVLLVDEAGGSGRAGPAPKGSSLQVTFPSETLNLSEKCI
Method: Cell membranes were prepared from HEK293 cell line (Human Embryonic Kidney 293) stably overexpressing human recombinant EP4 receptor. Cells grow adherent in DMEM with Glutamax | containing 10% FBS at 37° C. with 5% CO2. For membranes preparation, culture medium was aspirated from 150 cm^2 flasks in which cells were seeded. Cell monolayers were washed with 10 ml of hypotonic lysis buffer (TRIS 5 mM+EDTA 5 mM-pH 7.4), then cells were detached and lysed with the same buffer and by mechanical scraping. Lysates were centrifuged at 40000×g at 4° C. for 22 min. Pellets were stored at −80° C. until the use.
[3H]-Prostaglandin E2 ([3H]-PGE2) binding assays were performed in 10 mM MES-KOH buffer pH6, containing 10 mM MgCl2 and 1 mM CaCl2. Ten microgram of protein from membrane fractions are incubated in a total volume of 0.1 ml with 1 nM [3H]-PGE2. In order to determine the total binding or the non specific binding, 1% DMSO or 1 μM PGE2 were added to reaction mixtures, respectively. The specific binding represented >85% of total binding. In competition curves, the diluent was substituted by the test compounds (8 concentration spanning at least 2 order of magnitude; points in duplicates). In an independent series of experiments, competition curves of the same compounds were performed in the presence of Bovine Serum Albumin 0.5%. Incubation was carried out in a 96 multiwell plate for 90 min at room temperature, prior to separation of the bound and free radioligand by rapid filtration on glass fiber filters (Unifilter GFB96, PerkinElmer Inc) pre-soaked in 0.3% polyethyleneimine. Filters were washed with ice cold buffer pH 7.4 (50 mM HEPES, NaCl 500 mM, BSA 0.1%), dried for 30 minutes at 30° C. and then 0.1 ml of MICROSCINT-20 (PerkinElmer Inc) were added. The residual [3H]-PGE2 binding was determined by solid scintillation counter (TopCount, PerkinElmer Inc), after at least 1 hour of stabilization. Results of the competition curves were expressed as IC50 and the corresponding Ki were calculated according to the Chang-Prousoff equation. Finally the Ki value was transformed in pKi (the negative log of Ki).

SMILES: O=C([O-])c1ccc(C2(NC(=O)[C@H]3CC4(CCN3Cc3ccc(C(F)(F)F)cc3)CC4)CC2)cc1.[Na+] [Compound 1, sodium (R)-4-(1-(6-(4-(trifluoromethyl)benzyl)-6-azaspiro[2.5]octane-5-carboxamido)cyclopropyl)benzoate]
- Tmax [1]: 1 h
- RANK-L gene expression vs 10 μM PGE2 [2]: markedly decreased
- Stability ([3]; Powder, 50% RH −30° C.): Stable >24 hours
- Stability ([3]; Powder, 80° C.): Stable >5 days
- Stability ([3]; Powder, RT): Stable >1 month
- Stability ([3]; Sealed foil/Poly bag, 70% RH −40° C.): Stable >3 months
- concentration at which plateau of maximal effect on Th-17 cells is reached [4]: above 0.1 μM
- number of naïve Th-17 cells ([4]; 0.01-0.3 μM): marked decrease
- Ki ([5]; BSA 0.5%): 25.1 nM
- Ki ([5]; None (absence of BSA)): 12.6 nM
